Data set [1] deals with T1, IKKβ (Homo sapiens, UniProt O14920).
T1 sequence (O14920 1-756): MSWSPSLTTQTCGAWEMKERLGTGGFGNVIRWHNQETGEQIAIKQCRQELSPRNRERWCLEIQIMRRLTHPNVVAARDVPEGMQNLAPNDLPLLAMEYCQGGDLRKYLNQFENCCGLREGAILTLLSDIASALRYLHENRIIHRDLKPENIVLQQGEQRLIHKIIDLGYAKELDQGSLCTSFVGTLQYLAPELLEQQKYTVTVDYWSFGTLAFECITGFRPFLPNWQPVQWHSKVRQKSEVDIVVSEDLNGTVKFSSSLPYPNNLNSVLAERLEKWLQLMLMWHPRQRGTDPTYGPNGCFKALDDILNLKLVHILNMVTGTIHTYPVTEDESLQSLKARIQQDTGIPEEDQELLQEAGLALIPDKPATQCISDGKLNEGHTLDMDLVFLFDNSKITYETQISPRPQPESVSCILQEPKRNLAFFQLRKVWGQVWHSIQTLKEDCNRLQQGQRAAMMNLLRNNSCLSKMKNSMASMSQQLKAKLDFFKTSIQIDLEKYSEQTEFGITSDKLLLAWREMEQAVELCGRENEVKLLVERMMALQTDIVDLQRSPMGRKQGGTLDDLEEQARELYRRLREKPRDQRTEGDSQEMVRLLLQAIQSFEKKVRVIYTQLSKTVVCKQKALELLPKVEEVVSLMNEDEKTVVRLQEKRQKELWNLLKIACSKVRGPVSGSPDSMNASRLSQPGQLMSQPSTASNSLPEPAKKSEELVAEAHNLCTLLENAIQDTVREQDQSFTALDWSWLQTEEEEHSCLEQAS
In words: IKKβ kinase inhibition. The data set is classed as biochemical. The conditions noted are these: table of derivatives; read-out: IKKβ (IC50). The text has this: To further explore how (+)-ainsliadimer A inactivates IKKα/β, we conducted the molecular dynamics (MD) simulations using the first crystal structure of IKKβ^29 to sample the conformational states of IKKβ upon 223 binding. […] We next asked whether 223 could directly affect IKKβ kinase activity.

Data set [2] has as its system phosphorylation of IκBα. In words: LPS induced NF-κB activation: IκBα phosphorylation in RAW264.7 cells (western blot). The class given is cell-based, mouse. The settings on record: Raw 264.7 cells pre-incubated with 4 μM for 2 h, 20 ng/ml LPS, 20 minutes, western blot.
Data set [3] has as its system NF-κB activation. The experiment in a line: NF-κB activation (SAR analogs and biotin probes).
From the text: In order to evaluate which of them is critical for the binding of 223, we individually mutated these nine cysteine residues of IKKβ into alanines.
Data set [4] relates to BGC-823 human gastric adenocarcinoma xenograft. In words: BGC-823 xenograft in nude mice. The data set is classed as in vivo. The settings on record: 223 25 mg/kg, qdx8; HCPT 30 mg/kg, q6dx2. On the procedure:
Next we further examined anti-tumor effect of 223 in vivo. Nude mice bearing a BGC-823 human gastric adenocarcinoma xenograft were treated with vehicle or 223 (25 mg/kg, qdx8) or 10-hydroxycamptothecin (HCPT), a widely used anti-tumor drug (30 mg/kg, q6dx2).

In data set [5] the target is T2, recombinant Flag-IKKα (Homo sapiens, UniProt O15111).
T2 construct: made in house; host or cells: 293T cells (transient transfection, anti-Flag purification)
The experiment in a line: Binding to purified recombinant protein (SDS-PAGE, streptavidin blot). The conditions noted are these: increasing concentrations. On the procedure:
To determine whether 223 directly binds to IKKα and IKKβ, we generated recombinant IKKα and IKKβ proteins for further analysis. 293T cells were transfected with Flag-IKKα or Flag-IKKβ plasmid, and the recombinant Flag-IKKα or Flag-IKKβ was captured by anti-Flag agarose beads and was then eluted off the beads using Flag peptide. The purified Flag-IKKα or Flag-IKKβ was incubated with DMSO or increasing concentrations of Probe, and then the mixtures were resolved by SDS-PAGE, followed by immunoblotting with streptavidin or anti-Flag antibody.

Data set [6] deals with peptides 1A, 2A, 1S and 2S (cysteine 46 replaced by alanine or serine). In words: Peptide binding by MALDI-TOF. Further details: species or system human.
In data set [7] the test system is IKKβ C46 containing peptide (#1, #2; amino acids 41-53). In words: Peptide binding by MALDI-TOF. Further details: species or system human. On the procedure:
(§1) This peptide was tested for binding to 223 and probe by using MALDI-TOF (Matrix-Assisted […] Desorption/Ionization Time of Flight). m/z values at 2,047.978 and 2,479.259 were well matched with the calculated weights of #1+223 and #1+Probe, respectively. […] As expected, the peptide #2 containing amino acids 41-53 of human IKKβ interacted with both 223 and probe.

The target in data set [8] is T3, IKKβ C46 containing peptide (#1, #2; amino acids 41-53) (Homo sapiens, UniProt O14920).
T3 construct: encompasses amino acids 41-53 of human IKKβ; made in house; host or cells: chemical peptide synthesis
In words: Peptide binding by MALDI-TOF. The method, then: as §1

Data set [9] relates to IKKβ C215 containing peptides #3 and #4. In words: Peptide binding by MALDI-TOF. Further details: species or system human.
The target in data set [10] is T1, IKKβ. The experiment in a line: Pull-down from 293T cell lysates with streptavidin agarose beads. The class given is binding. On the procedure: (§2) To identify cellular proteins interacting with 223, we performed pull-down experiments using Probe and NC as the positive and negative probe, respectively. 293T cell lysates were incubated with streptavidin agarose beads which were pre-coupled with positive probe or negative probe. The proteins precipitated by streptavidin agarose beads were resolved by SDS-PAGE and stained with silver. […] We further monitored the presences of IKKα and IKKβ in the precipitates by immunoblotting.

Data set [11] deals with T4, IKKα (Homo sapiens, UniProt O15111).
T4 construct: endogenous in cells; host or cells: 293T
The description is as above. The class given is binding. The method, then:
as §2

SMILES strings stand for the structures.

T4 sequence (O15111 whole entry): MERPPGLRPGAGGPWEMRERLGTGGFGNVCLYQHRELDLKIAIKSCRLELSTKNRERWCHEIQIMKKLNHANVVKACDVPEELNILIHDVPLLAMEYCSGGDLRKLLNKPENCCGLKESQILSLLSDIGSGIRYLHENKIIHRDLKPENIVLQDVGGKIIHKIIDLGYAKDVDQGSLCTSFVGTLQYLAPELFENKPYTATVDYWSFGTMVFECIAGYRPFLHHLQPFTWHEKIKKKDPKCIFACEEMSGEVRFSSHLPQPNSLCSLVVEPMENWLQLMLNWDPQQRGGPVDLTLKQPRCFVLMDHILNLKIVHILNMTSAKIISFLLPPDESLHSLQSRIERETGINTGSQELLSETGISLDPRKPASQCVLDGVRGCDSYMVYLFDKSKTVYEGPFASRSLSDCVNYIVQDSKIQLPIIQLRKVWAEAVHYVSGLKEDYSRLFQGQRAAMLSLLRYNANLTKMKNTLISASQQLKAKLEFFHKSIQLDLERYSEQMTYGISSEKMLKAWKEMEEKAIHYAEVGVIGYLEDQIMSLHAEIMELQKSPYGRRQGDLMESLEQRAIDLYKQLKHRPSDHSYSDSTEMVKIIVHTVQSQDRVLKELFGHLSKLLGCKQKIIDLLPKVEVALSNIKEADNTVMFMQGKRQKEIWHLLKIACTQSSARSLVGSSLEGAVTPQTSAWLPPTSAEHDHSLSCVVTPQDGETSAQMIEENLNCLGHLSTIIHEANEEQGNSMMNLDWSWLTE
T2 sequence (O15111 whole entry): as above

Turning to `C=C1C(=O)O[C@@H]2[C@@H]3[C@@H](C[C@@]4(O)[C@]3(O)CC[C@]43C(=O)C[C@H]4C(=C)CC[C@H]5C(=C)C(=O)O[C@@H]5[C@H]43)C(=C)CC[C@@H]12` [Compound 1], in [1], the IC50 (in general, the concentration needed to halve the response being measured) was 75.7 nM. Moreover, in data set [2], the “phosphorylation of IκBα” value was “effectively blocked”.
For `C=C1C(=O)O[C@@H]2[C@@H]3[C@@H](C[C@@]45OC(C)(C)O[C@@]34CC[C@]53C(=O)C[C@H]4C(=C)CC[C@H]5C(=C)C(=O)O[C@@H]5[C@H]43)C(=C)CC[C@@H]12` [Compound 2] the same measures were 56 nM and “effectively blocked”.
As to `C=C1CC[C@H]2C(CN(C)C)C(=O)O[C@@H]2[C@@H]2[C@H]1C[C@@]13OC(C)(C)O[C@@]21CC[C@]31C(=O)C[C@H]2C(=C)CC[C@H]3C(CN(C)C)C(=O)O[C@@H]3[C@H]21` (stereo partly shown) [Compound 3], the IC50 in data set [1] stood at 41.8 nM. For the same compound, the “phosphorylation of IκBα” value in data set [2] is listed as “effectively blocked”.
As to `C=C1C(=O)O[C@@H]2[C@@H]3[C@@H](C[C@H](O)[C@]34CC[C@]3(O)[C@@H]5[C@H]6OC(=O)C(=C)[C@@H]6CCC(=C)[C@@H]5C[C@]43O)C(=C)CC[C@@H]12` [Compound 224], in data set [3], the “biological activity (initial SAR)” value is “fully retain the biological activity”.
For the compound `C=C1CC[C@@H]2[C@H](OC(=O)[C@H]2C)[C@@H]2[C@H]1C[C@@]1(O)[C@]2(O)CC[C@]12C(=O)C[C@H]1C(=C)CC[C@@H]3[C@H](OC(=O)[C@H]3C)[C@H]12` [Compound 225], in [3], the “biological activity (initial SAR)” value is “inactive”.
As to `CC[C@@]1(O)C(=O)OCc2c1cc1n(c2=O)Cc2cc3cc(O)ccc3nc2-1` [HCPT, 10-hydroxycamptothecin, reference compound], the “side effects and body weight during administration” value in data set [4] is “significant body weight loss”.
For the compound `C=C1C(=O)O[C@@H]2[C@@H]3[C@@H](C[C@H](OC(=O)CCOCCOCCOCCNC(=O)CCCC[C@@H]4SC[C@@H]5NC(=O)N[C@@H]54)[C@]34CC[C@]3(O)[C@@H]5[C@H]6OC(=O)C(=C)[C@@H]6CCC(=C)[C@@H]5C[C@]43O)C(=C)CC[C@@H]12` [Probe], the “interaction with recombinant IKKα” value in data set [5] was “strong interaction”. Further, the “binding to peptides 1A, 2A, 1S and 2S” value in data set [6] was “lost the ability to bind”. Besides, the “interaction with peptide #2” value in data set [7] was “interacted”. For the same compound, the “binding to peptide #1” value in data set [8] was “could bind”. In addition, the “association with peptides #3 and #4” value in [9] is given as “no association”. The “pull-down of IKKβ (immunoblotting)” value in [10] is listed as “specifically pulled down”. In addition, the “pull-down of IKKα (immunoblotting)” value in data set [11] was “specifically pulled down”.

The record behind these values is patent US9670226B2, “Sesquiterpenoids” (National Institute of Biological Sciences, Beijing, priority 2014, dated 2017).
